ChEMBL document CHEMBL1201862, “PubChem BioAssay data set” (2004)
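Tested at 5 concentrations; 48 h exposure; 96-well plates; endpoints linearly interpolated, else capped at highest concentration. GI50 is the concentration that inhibits growth by half.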 Activity calls are given as the source filed them. No stated cut-off is given here; in the data, active = GI50 up to about 1.1 µM and inactive = higher.

Legend:
Experiment in all cases: growth of human tumour cells (NCI), 48 h
A498 = tested on: A498
CAKI-1 = tested on: CAKI-1
COLO 205 = tested on: COLO 205
DU-145 = tested on: DU-145
HCC 2998 = tested on: HCC 2998
HL-60 = tested on: HL-60
HOP-92 = tested on: HOP-92
LOX IMVI = tested on: LOX IMVI
MDA-MB-435 = tested on: MDA-MB-435
OVCAR-4 = tested on: OVCAR-4
OVCAR-5 = tested on: OVCAR-5
OVCAR-8 = tested on: OVCAR-8
SK-MEL-5 = tested on: SK-MEL-5
SK-OV-3 = tested on: SK-OV-3
SNB-19 = tested on: SNB-19
KM12 = tested on: KM12
NCI-H226 = tested on: NCI-H226
SN12C = tested on: SN12C
SNB-75 = tested on: SNB-75

Measured: GI50

COc1cc(O)c2c(=O)c(O)c(-c3ccc(O)c(O)c3)oc2c1 [RHAMNETIN]
inactive: A498 3.68 µM | COLO 205 13.5 µM | DU-145 4.13 µM | HCC 2998 14 µM | HL-60 2.78 µM | HOP-92 10.5 µM | LOX IMVI 11.7 µM | MDA-MB-435 13 µM | OVCAR-5 19.7 µM | OVCAR-8 10.7 µM | SK-MEL-5 10.5 µM | SK-OV-3 20 µM | SNB-19 12.2 µM
active: CAKI-1 1.09 µM | OVCAR-4 0.403 µM

CN(C)c1ccc(/C=N/c2nc3cc4sc(/N=C/c5ccc(N(C)C)cc5)nc4cc3s2)cc1
inactive: A498 26.7 µM | CAKI-1 21.3 µM | COLO 205 4.75 µM | DU-145 8.22 µM | HL-60 16.9 µM | HOP-92 > 100 µM | KM12 46.7 µM | LOX IMVI 47.8 µM | MDA-MB-435 33.7 µM | NCI-H226 33.3 µM | OVCAR-4 > 100 µM | OVCAR-5 > 100 µM | OVCAR-8 76 µM | SK-MEL-5 > 100 µM | SK-OV-3 41.8 µM | SN12C 83.9 µM | SNB-19 77.6 µM | SNB-75 63.2 µM

C[N+]1(C)CCc2cc(O)c(O)cc2C1Cc1ccc(O)c(O)c1 (configuration not stated)
inactive: A498 > 100 µM | CAKI-1 50.9 µM | COLO 205 > 100 µM | DU-145 > 100 µM | HL-60 18.3 µM | HOP-92 27.1 µM | KM12 > 100 µM | LOX IMVI 27.7 µM | MDA-MB-435 20.2 µM | NCI-H226 39.2 µM | OVCAR-4 22.1 µM | OVCAR-5 > 100 µM | OVCAR-8 35.2 µM | SK-MEL-5 48.2 µM | SK-OV-3 > 100 µM | SN12C 38.2 µM | SNB-19 > 100 µM

COc1cc2oc(-c3ccc(O)cc3O)c(CC=C(C)C)c(=O)c2c(O)c1/C=C/C(C)C [ARTOCARPIN]
inactive: A498 2.21 µM | COLO 205 4.02 µM | DU-145 4.26 µM | HCC 2998 2.46 µM | HL-60 2.75 µM | HOP-92 3.08 µM | KM12 3.1 µM | LOX IMVI 1.8 µM | MDA-MB-435 1.99 µM | NCI-H226 3.58 µM | OVCAR-4 2.61 µM | OVCAR-5 6.64 µM | OVCAR-8 1.75 µM | SK-MEL-5 1.69 µM | SK-OV-3 7.21 µM | SN12C 1.81 µM | SNB-19 2.72 µM | SNB-75 3.04 µM

Cc1ccc(S(=O)(=O)NCCCSCCO)cc1
inactive: A498 > 100 µM | COLO 205 18.3 µM | DU-145 > 100 µM | HCC 2998 > 100 µM | HL-60 26.1 µM | HOP-92 36.4 µM | KM12 20.6 µM | LOX IMVI 29 µM | MDA-MB-435 45.2 µM | NCI-H226 27.9 µM | OVCAR-4 96.8 µM | OVCAR-8 57.8 µM | SK-MEL-5 13.9 µM | SK-OV-3 > 100 µM | SN12C 43 µM | SNB-19 9.04 µM | SNB-75 33.1 µM

C[C@@H](Oc1ccc(Oc2cnc3ccc(Cl)cc3n2)cc1)C(=O)O [R(+)XK469]
inactive: A498 > 100 µM | CAKI-1 > 100 µM | COLO 205 59.3 µM | DU-145 > 100 µM | HL-60 37.1 µM | HOP-92 > 100 µM | KM12 76.6 µM | LOX IMVI > 100 µM | MDA-MB-435 > 100 µM | OVCAR-4 > 100 µM | OVCAR-5 > 100 µM | OVCAR-8 > 100 µM | SK-MEL-5 67.5 µM | SK-OV-3 > 100 µM | SN12C > 100 µM | SNB-19 > 100 µM | SNB-75 > 100 µM
